Assay results from patent publication US10758513B2, “Modulators of mitochondrial protein import” (THE REGENTS OF THE UNIVERSITY OF CALIFORNIA, priority 2011, dated 2020).
In brackets after ≈: the same amount, converted by molar mass.

Legend:
[1] = biological target: T1, ALR (Homo sapiens, UniProt P55789); assay: In vitro ALR activity, Amplex Red-HRP assay; format: biochemical
T1 construct: Recombinant long form ALR, residues 1 to 205, was purified under native conditions; made in house

[2] = Stability of MitoBloCK-6 in screening buffer by LC-MS; format: physicochemical; conditions: pH 3.4, 6.5, 7.4; room temperature, 1 hour
Experimental: MitoBloCK-6 at a final concentration of 3 mM was incubated with screening buffer (30 mM Hepes, 100 mM NaCl, 1 mM EDTA) at pH 3.4, 6.5, and 7.4 in a reaction volume of 100 μl at room temperature for 1 hour. The sample was injected into the LC-MS and retention was monitored. As a control, 20 mM MitoBloCK-6 in 1% DMSO was also analyzed.
LC-MS experiments were carried out on a Waters Acquity UPLC connected to a Waters LCT-Premier XE Time of Flight Instrument controlled by MassLynx 4.1 software. The mass spectrometer was equipped with a Multi-Mode Source operated in the electrospray mode. Briefly, samples of MitoBloCK-6, ES-1, and ES-2 were separated using an Acquity BEH C18 1.7 um column (2.1×50 mm, Waters) and were eluted with a gradient of 0.5 mL/min water/acetonitrile with 2, 80, and 95% acetonitrile at 0.5, 2.5 and 3.5 min, respectively. Mass spectra were recorded from 80 to 2000 Daltons. All solvents were LC-MS/MS Grade and purchased from Fisher Scientific.

[3] = system: Δpdr5Δsnq2 yeast strain; assay: Yeast growth inhibition (MIC50), Δpdr5Δsnq2 strain; format: cell-based; conditions: Saccharomyces cerevisiae, ethanol-glycerol media, 25° C., 40 hours
Experimental: For MIC50 analysis in the yeast strains, serial dilution of MitoBloCK-6 (0.5 μl) was pinned into assay plate wells containing 50 μl of yeast (Table 2) in rich ethanol-glycerol media (starting OD600=0.0002). Plates were then incubated at 25° C. in a humidified chamber for 40 hours. Each plate was shaken in a Beckman orbital shaker to resuspend settled cells, and the OD600 in each well was read by a Wallac Victor plate reader (Perkin Elmer).

[4] = system: tim10-1 mutant overexpressing import components; assay: Yeast growth inhibition, tim10-1 mutant overexpressing import components; format: cell-based
From the text: (§1) In general, a standard set of genetic and molecular techniques were used to generate the strains in this study (31, 32). Screening strains were generated based on previously characterized temperature sensitive mutants (see supplementary table 1). The snq1 and pdr5 deletions were introduced in each strain by strain mating with MDY326 or PCR-mediated deletion (33, 34). Overexpression strains were generated by transforming 2p yeast shuttle vectors carrying the gene of interest with the native promoter into the tim10-1 strain using a standard LiCl protocol (35). Transformed yeast was maintained on selective media appropriate for the plasmid's auxotrophic marker. Strains lacking mitochondrial DNA (rho null) were generated by two rounds of selection of the parent on YPD plates supplemented with ethidium bromide (40 μg/ml) followed by two rounds of single colony selection on YPD plates.
(§2) A primary screen was performed using freshly streaked tim10-1 diluted in YPD to an OD600 of approximately 0.0002 and kept on ice throughout the screening run. […] Each plate was shaken in a Beckman orbital shaker to resuspend settled cells, and the OD600 in each well was read by a Wallac Victor plate reader (Perkin Elmer). The top 600 growth inhibitory compounds were determined and assembled into two plates. […]

[5] = system: strains lacking the mitochondrial genome (rho null); assay: Yeast growth inhibition, rho null strains; format: cell-based
From the text: as §1, §2

[6] = system: tim10-1 tim9S mitochondria; assay: Membrane potential with rhodamine 123; format: biochemical, yeast; conditions: 25 μM MitoBloCK-1; CCCP as control
Experimental: Membrane potential measurement assays were conducted with a SPEX spectrofluorometer system (HORIBA Jobin Yvon) with a magnetically stirred cuvette held at 25° C. The quenching of rhodamine 123 fluorescence (Em, =530 nm and Ex=485 nm) was used as previously described (9) to detect changes in mitochondrial membrane potential. Purified tim10-1 tim9S mitochondrial aliquots were thawed and resuspended in respiration buffer (0.65 M mannitol, 0.3 mM EGTA, 3 mm tris-phosphate, 10 mM tris-maleate, pH 6.75). Trials were started by adding 100 nM of rhodamine 123 to respiration buffer. After a period of signal stabilization, mitochondria were added to a concentration of 100 μg/mL. Either drug or DMSO was then added to a final vehicle concentration of 1% following the establishment of baseline quenched fluorescence. Finally, mitochondria were uncoupled with 3 μM CCCP.

T1 sequence (P55789 whole entry, the tested form may be a part): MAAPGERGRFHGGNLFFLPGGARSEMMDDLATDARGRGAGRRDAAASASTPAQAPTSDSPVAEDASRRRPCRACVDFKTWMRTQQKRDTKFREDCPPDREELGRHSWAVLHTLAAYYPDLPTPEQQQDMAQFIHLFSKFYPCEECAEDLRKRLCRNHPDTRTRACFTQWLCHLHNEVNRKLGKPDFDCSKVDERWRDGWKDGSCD

SMILES | IC50 [1] | stability by LC-MS [2] | MIC50 [3] | growth inhibition of tim10-1 mutant with overexpression of import components [4] | sensitivity of rho null strains [5] | rhodamine 123 fluorescence (membrane potential) [6]
Oc1c(Cl)cc(Cl)cc1/C=N/c1ccc(Nc2ccccc2)cc1 [MitoBloCK-6] | 700 nM | stable over this pH range | 15.2 µM (≈ 5.43 µg/mL) |  |  | 
NC(=S)N/N=C/c1c(O)c(Br)cc2oc3c(c12)CCCC3 [MitoBloCK-1] |  |  |  | did not alter the ability of MitoBloCK-1 to inhibit growth | sensitive | did not change
